Measurements published in US20080311036A1, “Imaging of Neural and Organ Injury or Damage” (UNIVERSITY OF FLORIDA RESEARCH FOUNDATION, INC., priority 2005, published 2008).

Tests used:
[1] = in vivo half-life after intravenous administration
Method: To enhance the brain residency of the selected “inhibitor-ligands,” a pro-drug strategy that promotes the “trapping” of their precursors in the CNS are evaluated (Prokai et al., 2000). […] The following scheme outlines the method employed to the selected inhibitor-ligands (see FIG. 5).

[2] = test system: calpain; test: in situ calpain inhibition in SH-SY5Y cells challenged with maitotoxin, SBDP145 by Western blot; type: cell-based; conditions: SH-SY5Y neuroblastoma cells, maitotoxin 0.3 nM, read-out: IC50 for blocking SBDP145
Method: The synthesized promoiety-conjugates Compound 1 and Compound 2, will be tested for oxidation stability at 37° C. in buffer (pH 7.4), rat plasma and rat-brain homogenate to probe the kinetics of the expected conversion to the pyridinium-ion intermediates. […] Compound 1 for calpain and Compound 2 will be further tested in in situ calpain and caspase inhibition analysis in cell culture. This may be important since both proteases are intracellular, so for the in vivo uses of the inhibitor-ligands, compounds must have the ability to penetrate cells and retain potency while inside cells. We will use neuroblastoma cell line SH-SY5Y, which can be manipulated to produce calpain-activation and necrosis with a neurotoxin maitotoxin (0.3 nM, Calbiochem) or caspase activation and apoptosis with calcium-chelator EGTA (5 mM) as we have shown before (McGinnis, Wang, Gnegy, (1999) J. Neurochem. 72, 1853-1863). Importantly the protease-produced spectrin breakdown products SBDP150 and SBDP145 (with maitotoxin) and SBDP150 and SBDP120 (with EGTA) are readily produced and quantitatively detected by Western blot analysis, which parallel the formation of SBDP's in brain injury in vivo. Prototype calpain inhibitor SJA6017 blocked SBDP145 at IC50 of 0.2 μM, while caspase inhibitor z-D-DCB blocks SBDP120 at IC50 of 5 μM. […]

[3] = known calpain inhibitors; cited from earlier work

Row | SMILES | in vivo half-life [1] | IC50 [2] [nM] | crossing of cell membranes [3]
1 | CC(C)C[C@@H](C=O)NC(=O)[C@@H](NS(=O)(=O)c1ccc(F)cc1)C(C)C [SJA-6017] | ca. 11 min | 200 | 
2 | CC(=O)N[C@@H](CC(C)C)C(=O)N[C@@H](CC(C)C)C(=O)N[C@H](C=O)CCCNC(=N)N [leupeptin, N-acetyl-Leu-Leu-argininal] |  |  | cross cell membranes only poorly
